Experimental data reported in patent US20220177931A1, “PROCESS AND COMPOSITION FOR CONTROLLING ETHANOL PRODUCTION” (priority 2020, published 2022).

Columns and labels:
Clostridium ljungdahlii = experiment: Syngas fermentation in stirred tank bioreactor, effect of vitamin feed rates on specific ethanol productivity; assay type: cell-based; settings: for effect of increasing feed rate on specific ethanol productivity: Experiment 4, vitamin B5 feed held constant below about 30 ug/g of cells, vitamin B1 and B7 feeds increased
Method: A synthesis gas containing CO. CO2 and H2 was continuously introduced into a stirred tank bioreactor containing Clostridium ljungdahlii (Experiments 1-4), along with a liquid medium containing trace metals and salts as described herein. Vitamins were provided using dedicated feed lines. A New Brunswick Bioflow reactor containing the fermentation medium was started with actively growing Clostridium ljungdahlii (Experiments 1-4). The rate of agitation of the reactor was set to 800 rpm at the start of the experiment and this agitation rate was maintained throughout the experiment. Feed gas flow to the reactor was increased based on the H2 and CO uptake of the culture. Temperature in the bioreactor was maintained at about 38° C. throughout the experiment. Samples of gas feed into the bioreactor and off-gas from the bioreactor and fermentation broth in the bioreactor were taken at intervals, for example feed gas, off-gas and fermentation broth were sampled about daily, once two hours and once four hours respectively. Above samples were analyzed for consumption or production of various gas components, broth acetic acid concentration, broth ethanol concentration and the optical density (cell density) of the culture. The unaroused volume of the reactor was maintained between 3000 to 3250 ml throughout the experiment. Further, the gas flow to the reactor was maintained at required gas flow rates by using a mass flow controller. The feed […] composition was 23% H2, 35% CO, 29% CO2 and 13% N2. In the following reactor runs, vitamins biotin, thiamine and pantothenate were feed to the reactor using a dedicated stream. Steady state conditions were maintained for a period of time greater than 5 times the cell retention time. Cell mass was essentially replaced 5 times before data collection phase started. After data set was collected, vitamin feed rate was adjusted, adjustment phase was repeated, and next data set was collected. Adjustment phase refers to an amount of time necessary for the culture to equilibrate to a change. In this experiment culture was allowed at least a 3-day adjustment phase. A cell recycle system (CRS) was attached to the reactor before the start of the experiment. During the experiment, medium feed rate was 3.0 to 6.0 ml/min, and through the CRS, 0-5 ml/min permeate was drawn out from the reactor. The following tables describe the vitamin feed rates and specific ethanol productivity (SEP).

[1] = tested on: Clostridium autoethanogenum; experiment: Fermentation trials, effect of vitamin feed rates and low cell retention time on specific ethanol productivity; assay type: cell-based
Method: Fermentation trials were conducted with Clostridium autoethanogenum with Biotin (B7) and Thiamine (B1) feeds held at lower base levels with increasing Pantothenate (B5) Feeds.

Compound | effect of increasing feed rate on specific ethanol productivity (Clostridium ljungdahlii) | SEP (specific ethanol productivity) ([1]; feeds (μg/g cells produced): pantothenate 48.47, biotin 29.54, thiamine 23.10, cell retention time 13.45 hrs) [g/day/g cells] | SEP (specific ethanol productivity) ([1]; feeds (μg/g cells produced): pantothenate 58.08, biotin 26.65, thiamine 20.84, cell retention time 13.27 hrs) [g/day/g cells] | SEP (specific ethanol productivity) ([1]; feeds (μg/g cells produced): pantothenate 62.90, biotin 23.04, thiamine 18.01, cell retention time 12.44 hrs) [g/day/g cells] | SEP (specific ethanol productivity) ([1]; feeds (μg/g cells produced): pantothenate 68.78, biotin 25.19, thiamine 19.70, cell retention time 11.36 hrs) [g/day/g cells] | SEP (specific ethanol productivity) ([1]; feeds (μg/g cells produced): pantothenate 70.67, biotin 21.62, thiamine 16.91, cell retention time 11.22 hrs) [g/day/g cells] | SEP (specific ethanol productivity) ([1]; feeds (μg/g cells produced): pantothenate 81.90, biotin 18.79, thiamine 14.69, cell retention time 9.81 hrs) [g/day/g cells] | specific ethanol productivity increase ([1]; vitamin B5 feed from about 48 to about 82 ug/g of cells produced, B1 and B7 under 30 then under 20 ug/g, cell retention time from about 13.5 to 9.8 hours) | SEP (specific ethanol productivity) (Clostridium ljungdahlii; Experiment 3, feeds (μg/g cells produced): pantothenate 19.33, biotin 17.76, thiamine 13.36) [g/day/g cells] | SEP (specific ethanol productivity) (Clostridium ljungdahlii; Experiment 3, feeds (μg/g cells produced): pantothenate 37.91, biotin 17.42, thiamine 13.10) [g/day/g cells] | SEP (specific ethanol productivity) (Clostridium ljungdahlii; Experiment 3, feeds (μg/g cells produced): pantothenate 55.49, biotin 17.00, thiamine 12.79) [g/day/g cells] | SEP (specific ethanol productivity) (Clostridium ljungdahlii; Experiment 3, feeds (μg/g cells produced): pantothenate 72.34, biotin 16.62, thiamine 12.50) [g/day/g cells] | SEP (specific ethanol productivity) (Clostridium ljungdahlii; Experiment 3, feeds (μg/g cells produced): pantothenate 108.13, biotin 19.87, thiamine 14.95) [g/day/g cells] | SEP (specific ethanol productivity) (Clostridium ljungdahlii; Experiment 3, feeds (μg/g cells produced): pantothenate 125.67, biotin 20.55, thiamine 14.76) [g/day/g cells] | specific ethanol productivity increase (Clostridium ljungdahlii; Experiment 3, vitamin B5 feed from about 20 to about 108 ug/g of cells produced, vitamin B1 and B7 feeds under 20 ug/g)
O=C(O)CCCC[C@@H]1SC[C@@H]2NC(=O)N[C@@H]21 [Biotin, biotin] | did not increase specific ethanol productivity | – | – | – | – | – | – | – | – | – | – | – | – | – | –
CC(C)(CO)[C@@H](O)C(=O)NCCC(=O)O [Pantothenate, pantothenate] | – | 8.08 | 8.24 | 8.51 | 9.39 | 9.70 | 9.98 | about 24% | 7.95 | 8.64 | 10.03 | 10.33 | 11.25 | 11.15 | about 42%
Cc1ncc(C[n+]2csc(CCO)c2C)c(N)n1 [Thiamine, thiamine] | did not increase specific ethanol productivity | – | – | – | – | – | – | – | – | – | – | – | – | – | –
